Data reported in patent US11319315B2, “Cyclohexyl acid triazole azoles as LPA antagonists” (BRISTOL-MYERS SQUIBB COMPANY, priority 2017, dated 2022).
Counter-ions that a name gives are not always drawn.

Biological target: T1, human LPA1 (Homo sapiens, UniProt Q92633)
T1 construct: expressed in transfected cells; host or cells: Chinese hamster ovary (CHO) cells
Assay: LPA1 functional antagonist assay (LPA-induced calcium flux in CHO cells overexpressing human LPA1)
Type: cell-based
Settings: inhibition of calcium flux induced by 10 nM LPA, CHO cells overexpressing human LPA1; read-out: hLPA1 IC50
How it was run: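 CHO cells overexpressing human LPA1, dye-loaded 30 min at 37 °C, then given compound (0.08 nM–5 μM final, 0.5% DMSO) in HBSS/20 mM HEPES/0.1% fatty-acid-free BSA for 20 min at room temperature before 10 nM LPA. IC50 as 50% inhibition of LPA-evoked calcium flux, 4-parameter logistic fit.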

T1 sequence (Q92633 whole entry): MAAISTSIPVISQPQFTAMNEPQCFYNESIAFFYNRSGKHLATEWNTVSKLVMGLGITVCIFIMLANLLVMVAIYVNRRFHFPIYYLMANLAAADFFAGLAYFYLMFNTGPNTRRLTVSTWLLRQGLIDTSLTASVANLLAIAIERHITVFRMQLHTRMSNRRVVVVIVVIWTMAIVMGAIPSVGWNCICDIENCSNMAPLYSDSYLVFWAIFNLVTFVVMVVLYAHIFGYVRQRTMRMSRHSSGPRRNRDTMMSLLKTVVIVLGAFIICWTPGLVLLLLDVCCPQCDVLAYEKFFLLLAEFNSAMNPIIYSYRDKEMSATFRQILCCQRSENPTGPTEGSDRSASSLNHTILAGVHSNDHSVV

SMILES	IC50 [nM]
CCCCc1nc(NCc2c(-c3nc(C)c(O[C@H]4CCC[C@H](C(=O)O)C4)cc3F)nnn2C)no1 [Example 280, (1S,3S)-3-((6-(5-(((5-butyl-1,2,4-oxadiazol-3-yl)amino)methyl)-1-methyl-1H-1,2,3-triazol-4-yl)-5-fluoro-2-methylpyridin-3-yl)oxy)cyclohexane-1-carboxylic acid]	143
Cc1nc(-c2nnn(C)c2CNc2noc(CCC(C)C)n2)c(F)cc1O[C@H]1CCC[C@H](C(=O)O)C1 [Example 281, (1S,3S)-3-((5-fluoro-6-(5-(((5-isopentyl-1,2,4-oxadiazol-3-yl)amino)methyl)-1-methyl-1H-1,2,3-triazol-4-yl)-2-methylpyridin-3-yl)oxy)cyclohexane-1-carboxylic acid]	67
Cc1nc(-c2nnn(C)c2CNc2noc(CC3CC3)n2)c(F)cc1O[C@H]1CCC[C@H](C(=O)O)C1 [Example 282, (1S,3S)-3-((6-(5-(((5-(cyclopropylmethyl)-1,2,4-oxadiazol-3-yl)amino)methyl)-1-methyl-1H-1,2,3-triazol-4-yl)-5-fluoro-2-methylpyridin-3-yl)oxy)cyclohexane-1-carboxylic acid]	236
Cc1nc(-c2nnn(C)c2CNc2noc(COC3CCC3)n2)ccc1O[C@H]1CCC[C@H](C(=O)O)C1 [Example 283, (1S,3S)-3-((6-(5-(((5-(cyclobutoxymethyl)-1,2,4-oxadiazol-3-yl)amino)methyl)-1-methyl-1H-1,2,3-triazol-4-yl)-2-methylpyridin-3-yl)oxy)cyclo-hexane-1-carboxylic acid, TFA salt]	19
CCCOCc1nc(NCc2c(-c3ccc(O[C@H]4CCC[C@H](C(=O)O)C4)c(C)n3)nnn2C)no1 [Example 284, (1S,3S)-3-((2-methyl-6-(1-methyl-5-(((5-(propoxymethyl)-1,2,4-oxadi-azol-3-yl)amino)methyl)-1H-1,2,3-triazol-4-yl)pyridin-3-yl)oxy)cyclo-hexane-1-carboxylic acid, TFA salt]	24
CC(C)CCc1nc(NCc2c(-c3ccc(O[C@H]4CCC[C@H](C(=O)O)C4)cn3)nnn2C)no1 [Example 285, (1 S,3 S)-3-((6-(5-(((5-isopentyl-1,2,4-oxadiazol-3-yl)amino)methyl)-1-methyl-1H-1,2,3-triazol-4-yl)pyridin-3-yl)oxy)cyclohexane-1-carboxylic acid]	93
Cn1nnc(-c2ccc(O[C@H]3CCC[C@H](C(=O)O)C3)cn2)c1CNc1noc(CCC2CC2)n1 [Example 286, (1S,3S)-3-((6-(5-(((5-(2-cyclopropyl-ethyl)-1,2,4-oxadiazol-3-yl)amino)methyl)-1-methyl-1H-1,2,3-triazol-4-yl)pyridin-3-yl)oxy)cyclohexane-1-carboxylic acid]	10
CCCCc1nc(NCc2c(-c3ccc(O[C@H]4CCC[C@H](C(=O)O)C4)cn3)nnn2C)no1 [Example 287, (1S,3S)-3-((6-(5-(((5-butyl-1,2,4-oxadiazol-3-yl)amino)methyl)-1-methyl-1H-1,2,3-triazol-4-yl)pyridin-3-yl)oxy)cyclohexane-1-carboxylic acid]	124
Cn1nnc(-c2ccc(O[C@H]3CCC[C@H](C(=O)O)C3)cn2)c1CNc1noc(CC2CCC2)n1 [Example 288, (1S,3S)-3-((6-(5-(((5-(cyclobutylmethyl)-1,2,4-oxadiazol-3-yl)amino)methyl)-1-methyl-1H-1,2,3-triazol-4-yl)pyridin-3-yl)oxy)cyclohexane-1-carboxylic acid]	34.1
Cn1nnc(-c2ccc(O[C@H]3CCC[C@H](C(=O)O)C3)cn2)c1CNc1noc(C2CCCC2)n1 [Example 289, (1S,3S)-3-((6-(5-(((5-cyclopentyl-1,2,4-oxadiazol-3-yl)amino)methyl)-1-methyl-1H-1,2,3-triazol-4-yl)pyridin-3-yl)oxy)cyclohexane-1-carboxylic acid]	50.7
Cn1nnc(-c2ccc(O[C@H]3CCC[C@H](C(=O)O)C3)cn2)c1CNc1noc(CCCC(F)(F)F)n1 [Example 292, (1S,3S)-3-((6-(1-methyl-5-(((5-(4,4,4-trifluorobutyl)-1,2,4-oxadi-azol-3-yl)amino)methyl)-1H-1,2,3-triazol-4-yl)pyridin-3-yl)oxy)cyclohexane-1-carboxylic acid]	48.7
CC(C)c1nc(NCc2c(-c3ccc(O[C@H]4CCC[C@H](C(=O)O)C4)cn3)nnn2C)no1 [Example 293, (1S,3S)-3-((6-(5-(((5-isopropyl-1,2,4-oxadiazol-3-yl)amino)methyl)-1-methyl-1H-1,2,3-triazol-4-yl)pyridin-3-yl)oxy)cyclohexane-1-carboxylic acid]	613
Cn1nnc(-c2ccc(O[C@H]3CCC[C@H](C(=O)O)C3)cn2)c1CNc1noc(CCC2CCC2)n1 [Example 294, (1S,3S)-3-((6-(5-(((5-(2-cyclobutyl-ethyl)-1,2,4-oxadiazol-3-yl)amino)methyl)-1-methyl-1H-1,2,3-triazol-4-yl)pyridin-3-yl)oxy)cyclohexane-1-carboxylic acid]	33.4
Cc1ccn(Cc2nnnn2Cc2c(-c3ccc(O[C@H]4CCC[C@H](C(=O)O)C4)c(C)n3)nnn2C)n1 [Example 303, (1S,3S)-3-({2-methyl-6-[1-methyl-5-({5-[(3-methyl-1H-pyrazol-1-yl)methyl]-1H-1,2,3,4-tetrazol-1-yl}methyl)-1H-1,2,3-triazol-4-yl]pyridin-3-yl}oxy)cyclohexane-1-carboxylic acid]	951
Cc1nc(-c2nnn(C)c2Cn2nnnc2COc2ccccc2)ccc1O[C@H]1CCC[C@H](C(=O)O)C1 [Example 304, (1S,3S)-3-{[2-methyl-6-(1-methyl-5-{[5-(phenoxymethyl)-1H-1,2,3,4-tetrazol-1-yl]methyl}-1H-1,2,3-triazol-4-yl)pyridin-3-yl]oxy}cyclohexane-1-carboxylic acid]	124
CCCOCc1nnnn1Cc1c(-c2ccc(O[C@H]3CCC[C@H](C(=O)O)C3)c(C)n2)nnn1C [Example 305, (1S,3S)-3-{[2-methyl-6-(1-methyl-5-{[5-(propoxymethyl)-1H-1,2,3,4-tetrazol-1-yl]methyl}-1H-1,2,3-triazol-4-yl)pyridin-3-yl]oxy}cyclohexane-1-carboxylic acid]	243
CCc1nc(-c2nnn(C)c2Cn2nnnc2CC2CC2)ccc1O[C@H]1CCC[C@H](C(=O)O)C1 [Example 306, (1S,3S)-3-{[6-(5-{[5-(cyclopropyl-methyl)-1H-1,2,3,4-tetrazol-1-yl]methyl}-1-methyl-1H-1,2,3-triazol-4-yl)-2-ethylpyridin-3-yl]oxy}cyclohexane-1-carboxylic acid]	205

Further lines, results first:

IC50 [nM]	SMILES
102	Cc1nc(-c2nnn(C)c2Cn2nnc(CC3CCC3)n2)ccc1O[C@H]1CCC[C@H](C(=O)O)C1 [Example 295, (1S,3S)-3-{[6-(5-{[5-(cyclobutyl-methyl)-2H-1,2,3,4-tetrazol-2-yl]methyl}-1-methyl-1H-1,2,3-triazol-4-yl)-2-methylpyridin-3-yl]oxy}cyclohexane-1-carboxylic acid]
96	Cc1nc(-c2nnn(C)c2Cn2nnc(CCC3CC3)n2)ccc1O[C@H]1CCC[C@H](C(=O)O)C1 [Example 296, (1S,3S)-3-{[6-(5-{[5-(2-cyclopropyl-ethyl)-2H-1,2,3,4-tetrazol-2-yl]methyl}-1-methyl-1H-1,2,3-triazol-4-yl)-2-methylpyridin-3-yl]oxy}cyclohexane-1-carboxylic acid]
92	Cc1nc(-c2nnn(C)c2Cn2nnc([C@H]3CCCO3)n2)ccc1O[C@H]1CCC[C@H](C(=O)O)C1 [Example 297, (1S,3S)-3-({2-methyl-6-[1-methyl-5-({5-[(2R)-oxolan-2-yl]-2H-1,2,3,4-tetrazol-2-yl}methyl)-1H-1,2,3-triazol-4-yl]pyridin-3-yl}oxy)cyclohexane-1-carboxylic acid]
96	Cc1nc(-c2nnn(C)c2Cn2nnnc2C(C)C)ccc1O[C@H]1CCC[C@H](C(=O)O)C1 [Example 298, (1S,3S)-3-{[2-methyl-6-(1-methyl-5-{[5-(propan-2-yl)-1H-1,2,3,4-tetrazol-1-yl]methyl}-1H-1,2,3-triazol-4-yl)pyridin-3-yl]oxy}cyclohexane-1-carboxylic acid]
99	Cc1nc(-c2nnn(C)c2Cn2nnc(C(C)C)n2)ccc1O[C@H]1CCC[C@H](C(=O)O)C1 [Example 299, (1S,3S)-3-{[2-methyl-6-(1-methyl-5-{[5-(propan-2-yl)-2H-1,2,3,4-tetrazol-2-yl]methyl}-1H-1,2,3-triazol-4-yl)pyridin-3-yl]oxy}cyclo-hexane-1-carboxylic acid]
98	Cc1nc(-c2nnn(C)c2Cn2nnc(COc3ccccc3)n2)ccc1O[C@H]1CCC[C@H](C(=O)O)C1 [Example 300, (1S,3S)-3-{[2-methyl-6-(1-methyl-5-{[5-(phenoxymethyl)-2H-1,2,3,4-tetrazol-2-yl]methyl}-1H-1,2,3-triazol-4-yl)pyridin-3-yl]oxy}cyclohexane-1-carboxylic acid]
963	Cc1cc(C)n(Cc2nnn(Cc3c(-c4ccc(O[C@H]5CCC[C@H](C(=O)O)C5)c(C)n4)nnn3C)n2)n1 [Example 301, (1S,3S)-3-({6-[5-({5-[(3,5-dimethyl-1H-pyrazol-1-yl)methyl]-2H-1,2,3,4-tetrazol-2-yl}methyl)-1-methyl-1H-1,2,3-triazol-4-yl]-2-methylpyridin-3-yl}oxy)cyclohexane-1-carboxylic acid]
63	CCCOCc1nnn(Cc2c(-c3ccc(O[C@H]4CCC[C@H](C(=O)O)C4)c(C)n3)nnn2C)n1 [Example 302, (1S,3S)-3-{[2-methyl-6-(1-methyl-5-{[5-(propoxymethyl)-2H-1,2,3,4-tetrazol-2-yl]methyl}-1H-1,2,3-triazol-4-yl)pyridin-3-yl]oxy}cyclohexane-1-carboxylic acid]
